Earlier results on 1 substance are cited in publication PMC5306496 (British Journal of Clinical Pharmacology, 2016).

For series [1] the following is noted: CVVHDF.
Assay in series [2]: not given
The source holds these as a separate data set.

Assay in series [3]: not given
This is another data set of the same source.

Setting [4] is: patients with SAB/RIE and CrCl > 30 ml min^−1, 6 mg kg^−1 once daily.

Like-named read-outs stand apart in the source and are kept apart here. Where only a bound is given, the exact number is not on record here.

With daptomycin, the C max in series [1] (4 mg kg^−1/day, n = 4, range) is 24700 to 69700 ng/mL; in series [1] (5 mg kg^−1/day, n = 2, range) it was 34700 to 35700 ng/mL; in series [1] (6 mg kg^−1/day, n = 2, range), 20500 to 61700 ng/mL. In addition, the C min in series [1] (4 mg kg^−1/day, n = 4, range) is 2700 to 11900 ng/mL; in series [1] (5 mg kg^−1/day, n = 2, range), 3000 to 3700 ng/mL; in series [1] (6 mg kg^−1/day, n = 2, range), 1500 to 15900 ng/mL. Besides, the “C min that may be associated with elevated creatine phosphokinase (CPK)” value (additional safety threshold) was over 24300 ng/mL. Besides, the “safety threshold C max” value (healthy volunteers with normal renal function, 12 mg kg^−1 Q24 h) was 197000 ng/mL. Moreover, under setting [4], the “efficacy exposure reference AUC0–24h” value is 465 to 761 µg·h/mL. For the same substance, the “efficacy exposure reference C max” value under setting [4] is 66000 to 112000 ng/mL. Moreover, the CL in series [2] (base model without CRRT patients, not-on-dialysis) was 11.4 mL/h/kg; in series [2] (base model without CRRT patients, not-on-dialysis, at 70 kg), 0.80 L/h; in series [2] (base model, CAPD), 2.98 mL/h/kg; in series [2] (base model, HD) it was 3.43 mL/h/kg. The “clearance by CRRT as share of the total drug clearance” value in series [3] was 40–50%. Moreover, the PK linearity result in series [3] (once‐daily doses of 6–12 mg kg^−1) is recorded as “linear PK profile”. For the same substance, the “amount of drug cleared by the kidneys” value in series [3] (patients with normal renal function) was 34–54%.
